Reference: ChEMBL document CHEMBL3046521, “Synthesis and antitumor activity of (4-hydroxyphenyl)[5-substituted alkyl/aryl)-2-thioxo-1,3,4-thiadiazol-3-yl]methanone and [(3,4-disubstituted)-1,3-thiazol-2ylidene]-4-hydroxybenzohydrazide” (2011)

Experiments:
Type in all cases: functional
KM12 = assay: Cytotoxicity against Homo sapiens (human) KM12 cells after 48 hr by sulforhodamine B assay; conditions: KM12, 48 h
HT-29 = assay: Cytotoxicity against Homo sapiens (human) HT-29 cells after 48 hr by sulforhodamine B assay; conditions: HT-29, 48 h
HCT-15 = assay: Cytotoxicity against Homo sapiens (human) HCT15 cells after 48 hr by sulforhodamine B assay; conditions: HCT-15, 48 h
COLO 205 = assay: Cytotoxicity against Homo sapiens (human) COLO205 cells after 48 hr by sulforhodamine B assay; conditions: COLO 205, 48 h
NCI-H460 = assay: Cytotoxicity against Homo sapiens (human) NCI-H460 cells after 48 hr by sulforhodamine B assay; conditions: NCI-H460, 48 h
NCI-H226 = assay: Cytotoxicity against Homo sapiens (human) NCI-H226 cells after 48 hr by sulforhodamine B assay; conditions: NCI-H226, 48 h
NCI-H23 = assay: Cytotoxicity against Homo sapiens (human) NCI-H23 cells after 48 hr by sulforhodamine B assay; conditions: NCI-H23, 48 h
HOP-62 = assay: Cytotoxicity against Homo sapiens (human) HOP62 cells after 48 hr by sulforhodamine B assay; conditions: HOP-62, 48 h
EKVX = assay: Cytotoxicity against Homo sapiens (human) EKVX cells after 48 hr by sulforhodamine B assay
SR = assay: Cytotoxicity against Homo sapiens (human) SR cells after 48 hr by sulforhodamine B assay
[1] = Cytotoxicity against Homo sapiens (human) […] cells after 48 hr by sulforhodamine B assay
HL-60(TB) = assay: Cytotoxicity against Homo sapiens (human) HL-60(TB) cells after 48 hr by sulforhodamine B assay; conditions: HL-60, 48 h
LOX IMVI [2] = assay: Anticancer activity in Homo sapiens (human) LOXIMVI cells assessed as cell growth at 10^-5 M after 48 hr by SRB assay; conditions: read-out: Activity
T47D = assay: Cytotoxicity against Homo sapiens (human) T47D cells after 48 hr by sulforhodamine B assay
Hs-578T = assay: Cytotoxicity against Homo sapiens (human) Hs 578T cells after 48 hr by sulforhodamine B assay
DU-145 = assay: Cytotoxicity against Homo sapiens (human) DU145 cells after 48 hr by sulforhodamine B assay; conditions: DU-145, 48 h
PC-3 = assay: Cytotoxicity against Homo sapiens (human) PC3 cells after 48 hr by sulforhodamine B assay; conditions: PC-3, 48 h
ACHN = assay: Cytotoxicity against Homo sapiens (human) ACHN cells after 48 hr by sulforhodamine B assay
786-0 = assay: Cytotoxicity against Homo sapiens (human) 786-0 cells after 48 hr by sulforhodamine B assay; conditions: 786-0, 48 h
[3] = Cytotoxicity against Homo sapiens (human) NCI-ADR-RES cells after 48 hr by sulforhodamine B assay
OVCAR-8 = assay: Cytotoxicity against Homo sapiens (human) OVCAR8 cells after 48 hr by sulforhodamine B assay; conditions: OVCAR-8, 48 h
UACC-257 = assay: Cytotoxicity against Homo sapiens (human) UACC257 cells after 48 hr by sulforhodamine B assay; conditions: UACC-257, 48 h
SK-MEL-28 = assay: Cytotoxicity against Homo sapiens (human) SK-MEL-28 cells after 48 hr by sulforhodamine B assay; conditions: SK-MEL-28, 48 h
M14 = assay: Cytotoxicity against Homo sapiens (human) M14 cells after 48 hr by sulforhodamine B assay; conditions: M14, 48 h
LOX IMVI [4] = assay: Cytotoxicity against Homo sapiens (human) LOXIMVI cells after 48 hr by sulforhodamine B assay
Malme-3M = assay: Cytotoxicity against Homo sapiens (human) MALME-3M cells after 48 hr by sulforhodamine B assay
U-251 = assay: Cytotoxicity against Homo sapiens (human) U251 cells after 48 hr by sulforhodamine B assay; conditions: U-251, 48 h
SNB-75 = assay: Cytotoxicity against Homo sapiens (human) SNB75 cells after 48 hr by sulforhodamine B assay; conditions: SNB-75, 48 h
SNB-19 = assay: Cytotoxicity against Homo sapiens (human) SNB19 cells after 48 hr by sulforhodamine B assay; conditions: SNB-19, 48 h
SF-295 = assay: Cytotoxicity against Homo sapiens (human) SF295 cells after 48 hr by sulforhodamine B assay; conditions: SF-295, 48 h

`COc1ccc(-c2cs/c(=N\NC(=O)c3ccc(O)cc3)n2-c2ccc(OC)cc2OC)cc1` showed a GI50 (KM12) of 2.63 µM, an LC50 (KM12) of 87.1 µM and a TGI (KM12; read-out: pTGI (converted)) of 8.51 µM. The GI50 (HT-29) was 3.63 µM, the LC50 (HT-29) was over 100 µM and the TGI (HT-29; read-out: pTGI (converted)) was 17 µM. It also gave a GI50 (HCT-15) of 3.55 µM, an LC50 (concentration killing 50% of cells) (HCT-15) of over 100 µM and a TGI (HCT-15; read-out: pTGI (converted)) of over 100 µM. The GI50 (COLO 205) was 4.47 µM, the LC50 (COLO 205) was 79.4 µM and the TGI (COLO 205; read-out: pTGI (converted)) was 20.9 µM. It also gave a GI50 (NCI-H460) of 3.02 µM, an LC50 (NCI-H460) of over 100 µM and a TGI (NCI-H460; read-out: pTGI (converted)) of 13.5 µM. It also gave a GI50 (NCI-H226) of 4.27 µM, an LC50 (NCI-H226) of over 100 µM and a TGI (NCI-H226; read-out: pTGI (converted)) of over 100 µM. It also gave a GI50 (NCI-H23) of 11 µM, an LC50 (NCI-H23) of over 100 µM and a TGI (NCI-H23; read-out: pTGI (converted)) of over 100 µM. It also gave a GI50 (HOP-62) of 2.95 µM, an LC50 (HOP-62) of 49 µM and a TGI (HOP-62; read-out: pTGI (converted)) of 7.59 µM. The GI50 (EKVX) was 6.92 µM, the LC50 (EKVX) was over 100 µM and the TGI (EKVX; read-out: pTGI (converted)) was over 100 µM. It also gave a GI50 (SR) of 2 µM, an LC50 (SR) of over 100 µM and a TGI (SR; read-out: pTGI) of over 100 µM. For the same compound, the GI50 [1] was 3.8 µM, the LC50 [1] was over 100 µM and the TGI ([1]; read-out: pTGI (converted)) was over 100 µM. The GI50 (HL-60(TB)) was 3.02 µM, the CC50 (HL-60(TB); read-out: pLC50 (the source's name) (converted)) was over 100 µM and the TGI (HL-60(TB); read-out: pTGI (converted)) was 38 µM. It also gave a growth at 10 µM (LOX IMVI [2]) of 58.3%, a GI50 (T47D) of 5.13 µM and an LC50 (T47D) of over 100 µM. For the same compound, the TGI (T47D; read-out: pTGI (converted)) was 79.4 µM, the GI50 (Hs-578T) was 6.92 µM and the LC50 (Hs-578T) was over 100 µM. It also gave a TGI (Hs-578T; read-out: pTGI (converted)) of 53.7 µM, a GI50 (DU-145) of 8.13 µM and an LC50 (DU-145) of over 100 µM. It also gave a TGI (DU-145; read-out: pTGI (converted)) of 40.7 µM, a GI50 (PC-3) of 3.39 µM and an LC50 (PC-3) of over 100 µM. It also gave a TGI (PC-3; read-out: pTGI (converted)) of over 100 µM, a GI50 (ACHN) of 4.79 µM and an LC50 (ACHN) of over 100 µM. It also gave a TGI (ACHN; read-out: pTGI (converted)) of over 100 µM, a GI50 (786-0) of 4.07 µM and an LC50 (786-0) of over 100 µM. It also gave a TGI (786-0; read-out: pTGI (converted)) of 26.3 µM, a GI50 [3] of 2.95 µM and an LC50 [3] of over 100 µM. The TGI ([3]; read-out: pTGI (converted)) was 8.32 µM, the GI50 (OVCAR-8) was 10.2 µM and the LC50 (OVCAR-8) was over 100 µM. It also gave a TGI (OVCAR-8; read-out: pTGI (converted)) of over 100 µM, a GI50 (UACC-257) of 15.1 µM and an LC50 (UACC-257) of over 100 µM. The TGI (UACC-257; read-out: pTGI (converted)) was over 100 µM, the GI50 (SK-MEL-28) was 7.24 µM and the LC50 (concentration killing 50% of cells) (SK-MEL-28) was over 100 µM. The TGI (SK-MEL-28; read-out: pTGI (converted)) was 53.7 µM, the GI50 (M14) was 5.5 µM and the LC50 (M14) was over 100 µM. It also gave a TGI (M14; read-out: pTGI (converted)) of 27.5 µM, a GI50 (LOX IMVI [4]) of 3.8 µM and an LC50 (LOX IMVI [4]) of 85.1 µM. It also gave a TGI (LOX IMVI [4]; read-out: pTGI (converted)) of 15.8 µM, a GI50 (Malme-3M) of 5.37 µM and an LC50 (Malme-3M) of over 100 µM. It also gave a TGI (Malme-3M; read-out: pTGI (converted)) of 64.6 µM, a GI50 (U-251) of 4.47 µM and an LC50 (U-251) of 93.3 µM. The TGI (U-251; read-out: pTGI (converted)) was 89.1 µM, the GI50 (SNB-75) was 22.9 µM and the LC50 (SNB-75) was over 100 µM. For the same compound, the TGI (SNB-75; read-out: pTGI (converted)) was over 100 µM, the GI50 (SNB-19) was 10.7 µM and the LC50 (SNB-19) was over 100 µM. The TGI (SNB-19; read-out: pTGI (converted)) was over 100 µM, the GI50 (SF-295) was 2.82 µM and the LC50 (SF-295) was over 100 µM. The TGI (SF-295; read-out: pTGI (converted)) was 9.77 µM.
